{"source": "patent US6342526B1", "about": "“Method for enhancing or achieving training-induced bradycardia with Carnitine” (Lonza Ltd., priority 2000, dated 2002)", "key": {"horses [1]": {"system": "horses", "test": "Heart rate during treadmill exercise training with oral L-carnitine supplementation", "format": "in vivo, horse"}, "[2]": {"test": "LC concentration in M. glutaeus med. muscle biopsies", "format": "in vivo, horse", "details": "horses", "description": "LC was obtained as commercially available free L-carnitine (Carniking® from Lonza Ltd.). After a first standardised exercise test (SET) during the whole experiment period (5 weeks training, 15 weeks detraining) a group of 4 Trotters received 10 g of LC/d offered with concentrate in two feed portions daily, as essentially described in example 1, while a group of 4 Trotters served as non-supplemented controls. All horses were two years old and were descendants from 1 stallion. The treadmill training program consisted of 8 aerobic, static exercise sessions (15 min warmup, 60 min exercise at an intensity level which maintained a blood lactate concentration of 2.0 mmol/l (VLA 2.0)) and 8 anaerobic exercise sessions (15 min, warm up, followed by 15 steps of graded exercise intensities of 1 min duration each, starting at VLA 4.0). During the dynamic exercises running speed was incremented every minute by 0.3 m/s and ranged from about of 5 m/s to 14 m/s. […]\nMuscle biopsies from M. glutaeus med. and venous blood samples were collected at the beginning (1st SET) and the end of training (2nd SET) and at the beginning and the end of the 1st (beginning of training) and 8th (end of training) static and dynamic exercise and after 5 and 10 weeks of detraining. […] Heart rates were continuously monitored during exercises with a polar horse tester."}, "horses [3]": {"system": "horses", "test": "Plasma glucose and blood lactate during standardised exercise test (SET)", "format": "in vivo, horse", "details": "10 g LC/d"}, "rats": {"system": "rats", "test": "Training-induced bradycardia in rats", "format": "in vivo, rat"}, "swine": {"system": "swine", "test": "Training-induced bradycardia in swine", "format": "in vivo"}}, "data": [{"smiles": "C[N+](C)(C)C[C@H](O)CC(=O)[O-]", "note": "[L-carnitine]", "values": [{"measurement": "Heart rate at end of incremented, high intensity (anaerobic) exercise, post-training", "setting": "horses [1]; N=4, 10 g LC/d, end of 15 steps of +0.3 m/s, after 5 weeks training, mean", "value": 196, "unit": "beats/min"}, {"measurement": "Heart rate at end of incremented, high intensity (anaerobic) exercise, pre-training", "setting": "horses [1]; N=4, 10 g LC/d, end of 15 steps of +0.3 m/s, pre-training, mean", "value": 209, "unit": "beats/min"}, {"measurement": "Heart rate at start of incremented, high intensity (anaerobic) exercise, post-training", "setting": "horses [1]; N=4, 10 g LC/d, start at VLA 4.0, after 5 weeks training, mean", "value": 143, "unit": "beats/min"}, {"measurement": "Heart rate at start of incremented, high intensity (anaerobic) exercise, pre-training", "setting": "horses [1]; N=4, 10 g LC/d, start at VLA 4.0, pre-training, mean", "value": 150, "unit": "beats/min"}, {"measurement": "Decline of post-training heart rate at equivalent work loads versus start of training", "setting": "horses [1]; SET, 10 g LC/d for 5 weeks training, FIG. 2", "value": 7, "unit": "beats/minute"}, {"measurement": "Change in heart rate at increasing exercise work loads, end versus start of training", "setting": "horses [1]; SET, treadmill speeds 5 to 9 m/s, 10 g LC/d, 5 weeks", "value": "significant (p<0.001) reduction in heart rate"}, {"measurement": "Heart rate during moderate intensity (aerobic) exercise, post-training", "setting": "horses [1]; Trotters N=4, 10 g LC/d oral, 60 min treadmill at VLA 2.0, after 5 weeks training, mean ± SD", "value": "122 ± 6", "unit": "beats/min"}, {"measurement": "Heart rate during moderate intensity (aerobic) exercise, pre-training", "setting": "horses [1]; Trotters N=4, 10 g LC/d oral, 60 min treadmill at VLA 2.0, pre-training, mean ± SD", "value": "130 ± 7", "unit": "beats/min"}, {"measurement": "Elevation of LC concentration in M. glutaeus med.", "setting": "[2]; 10 g LC/d oral, five weeks of supplementation", "value": "about 50%"}, {"measurement": "LC concentration in the muscle during detraining period", "setting": "[2]; 10 g LC/d, whole detraining period", "value": "remained at this high level"}, {"measurement": "Exercise-induced increase of blood lactate", "setting": "horses [3]; FIG. 1", "value": "lower"}, {"measurement": "Concentration of glucose in plasma during exercise, second SET versus first SET", "setting": "horses [3]; end of 5 weeks training", "value": "lower concentrations of glucose in plasma during exercise"}, {"measurement": "Enhancement of training-induced bradycardia", "setting": "rats", "value": "enhancement of training-induced bradycardia was equally achieved"}, {"measurement": "Enhancement of training-induced bradycardia", "setting": "swine", "value": "enhancement of training-induced bradycardia was equally achieved"}]}]}
